Test results taken from patent US11566049B2, “Cyclic peptides and uses thereof” (LATERAL IP PTY LTD, priority 2018, dated 2023).
Several values for one entry are separate records, joined by “and”; a condition that tells them apart may be missing. Equal entries are not always repeated. Entries after “also recorded” stand apart in the source; their conditions may differ.

Tested on: dorsal horn neurons
Assay: whole-cell recording of dorsal horn neurons in spinal cord slices from Chung models (Example 4)
Format: cell-based, rat
Settings: 1 μM; for Input Resistance, mean in presence of peptide / Membrane Potential, mean in presence of peptide: all cells; for Normalised Input Resistance / Normalised Input Resistance ΔIR: control = 100; for effect on membrane potential and activity of dorsal horn neurons: ipsilateral to injury; for Normalised Membrane Potential / Normalised Membrane Potential ΔVm: rest = 100; for reversal potential of induced response (VI plots intersect): single cells; for ΔIR, change in neuronal input resistance: vs control, in table positive = reduction, negative = increase; for ΔVm, change in membrane potential: vs rest, in table positive = hyperpolarisation, negative = depolarisation
Experimental: Adult male Sprague-Dawley rats, weighing 220-250 g (aged/weeks and older) at the time of surgery, were used in this study. They were housed in groups of 4, in an air-conditioned room, on a 12-hour light/dark cycle with food and water available ad libitum. All experiments were performed in accordance with the U.K. Animals (Scientific Procedures) Act (1986).
The animals were housed in groups of 4 in an air-conditioned room on a 12-hour light/dark cycle. Food and water were available ad libitum. They were allowed to acclimatise to the environment for experiments for three days by leaving them on a raised metal mesh for at least 40 min. The baseline paw withdrawal threshold (PWT) was examined using a series of graduated von Frey hairs (see below) for 3 consecutive days before surgery and re-assessed on the 6th to 8th day after surgery and on the 12th to 14th day after surgery before drug dosing.
Each rat was anaesthetized with 5% isoflurane mixed with oxygen (2 L per min) followed by an intramuscular (i.m.) injection of ketamine 90 mg/kg plus xylazine 10 mg/kg. The back was shaved and sterilized with povidone-iodine. The animal was placed in a prone position and a para-medial incision was made on the skin covering the L4-6 level. The L5 spinal nerve was carefully isolated and tightly ligated with 6/0 silk suture. The wound was then closed in layers after a complete haemostasis. A single dose of antibiotics (Amoxipen, 15 mg/rat, i.p.) was routinely given for prevention of infection after surgery. The animals were placed in a temperature-controlled recovery chamber until fully awake before being returned to their home cages.
LAT9993 LoopS (SEQ ID NO:28), SEQ11+LAT9993 Loop (SEQ ID NO:32; […]), SEQ25+LAT9993 Loop (SEQ ID NO:33; […]), LAT9993 SLoop A4 (SEQ ID NO:30), LAT9993 SLoop A7 (SEQ ID NO:31), LAT9993 SLoop A9 (SEQ ID NO:34; SCRSRPVEASC) and LAT9993 SLoop A10 (SEQ ID NO:35; SCRSRPVESAC), were solubilised in distilled water and made up as concentrated stocks and stored frozen until the day of experiment when they were diluted to the required test concentrations in artificial cerebrospinal fluid (aCSF), as described in Example 3, above.
Ten to fourteen days after surgery, animals were placed in individual Perspex boxes on a raised metal mesh for at least 40 minutes prior to PWT testing. Starting with the filament of lowest force (1 g), each filament was applied perpendicularly to the centre of the ventral surface of the paw until slightly bent for 6 seconds. If the animal withdrew or lifted its paw upon stimulation, a von Frey hair with force immediately lower than that tested was subsequently used. If no response was observed, then a hair with force immediately higher was tested. The lowest amount of force required to induce reliable responses (positive in 2 out of 3 trials) was recorded as the value of PWT. Only animals showing significant mechanical allodynia (PWT≤3.5 g) were selected for subsequent electrophysiological experiments (see FIG. 5).
Once validation of a neuropathic state had been confirmed, animals were terminally anesthetized using isoflurane (Norvartis Animal Health UK Ltd.), cervically dislocated and decapitated. A laminectomy was performed and the spinal cord, with spinal roots and DRG attached, removed and cut into 250-450 μm thick slices using a Leica VT1000S vibrating microtome (Leica Microsystems UK, Milton Keynes, United Kingdom). Slices were maintained in artificial cerebrospinal fluid (aCSF) at room temperature for 1 hr after slicing before recording. For recording, individual slices were held between two grids in a custom-built chamber continuously perfused with aCSF at a rate of 4-10 ml.min^−1, illuminated from below, and viewed under a dissection microscope. The aCSF was of the following composition (mM): NaCl, 127; KCl, 1.9; KH2PO4, 1.2; CaCl2, 2.4; MgCl2, 1.3; NaHCO3, 26; D-glucose, 10; equilibrated with 95% O2-5% CO2. […]

[1] = listed as SEQ 11 + LAT9993 Loop

Sequence	dorsal root afferent-mediated EPSPs / synaptic inputs (words)	Input Resistance, mean in presence of peptide	Membrane Potential, mean in presence of peptide	Normalised Input Resistance	Normalised Input Resistance ΔIR	Normalised Membrane Potential	Normalised Membrane Potential ΔVm	reversal potential of induced response (VI plots intersect)	effect on membrane potential and activity of dorsal horn neurons	ΔIR, change in neuronal input resistance	ΔVm, change in membrane potential	also measured
SCRSRPVEASC (listed as Homo sapiens) [LAT9993 SLoop A9, peptide variant of formula (I)]	little effect	243.1±54.4 MΩ and 243.1 MΩ	−45.6±11.2 mV and −45.6 mV	134.0	−34.0	76.9	23.1	no obvious reversal potentials				dorsal root-evoked IPSPs: little effect; effect on membrane potential and activity of dorsal horn neurons (listed as LAT9993 Loop A9): membrane depolarisation in all neurons; dorsal root afferent-mediated EPSPs / synaptic inputs (words) (listed as LAT9993 Loop A9): no obvious effect; also recorded: little effect
CRSRPVESSCSSKFSWDEYEQYKKE (listed as Homo sapiens) [SEQ25+LAT9993 Loop, peptide variant of formula (I)]	suppressed dorsal root-evoked excitatory posts-synaptic potentials (EPSPs) in one neurone; also recorded: suppressed dorsal root afferent-mediated synaptic inputs; also recorded: partly suppressed	339.6±97.6 MΩ	−49.1±3.0 mV	101.7	−1.7	93.7	6.3		induced inhibition of spontaneous activity and suppressed an after-depolarising potential; also recorded: slight depolarisation of the membrane potential	1.4±18.2 MΩ	3.4±0.9 mV	Input Resistance, mean in presence of peptide (listed as SEQ25 + LAT9993 Loop): 339.6 MΩ; Membrane Potential, mean in presence of peptide (listed as SEQ25 + LAT9993 Loop): −49.1 mV; ΔIR, change in neuronal input resistance (listed as SEQ25 + LAT9993 Loop): −1.4 MΩ; ΔVm, change in membrane potential (listed as SEQ25 + LAT9993 Loop): −3.4 mV
IDPSSEAPGHSCRSRPVESSC (listed as Homo sapiens) [SEQ11+LAT9993 Loop, peptide variant of formula (I)]	little effect; also recorded: No obvious effect	338.1±103.7 MΩ	−52.3±9.8 mV	85.6	14.4	101.4	−1.4	around −65 mV	membrane hyperpolarisation and inhibition of activity in 2 neurons; also recorded: membrane depolarisation in the other neurone	109.5±140.2 MΩ	1.6±3.4 mV	Input Resistance, mean in presence of peptide [1]: 338.1 MΩ; Membrane Potential, mean in presence of peptide [1]: −52.3 mV; ΔIR, change in neuronal input resistance [1]: 109.5 MΩ; ΔVm, change in membrane potential [1]: 1.6 mV
SCRSRPVESAC (listed as Homo sapiens) [LAT9993 SLoop A10, peptide variant of formula (I)]	little effect	452.3 MΩ	−56.8±5.6 mV and −56.8 mV	99.3	0.7	101.2	−1.2			−8.5 MΩ	0.7±1.2 mV and 0.7 mV	Input Resistance, mean in presence of peptide (listed as LAT9993 Loop A10): 452.3±197.1 MΩ; effect on membrane potential and activity of dorsal horn neurons (listed as LAT9993 Loop A10): membrane hyperpolarisation and inhibition of activity in 2 neurons; also recorded: membrane depolarisation in 1 neurone; also recorded: little effect on dorsal horn neurons; ΔIR, change in neuronal input resistance (listed as LAT9993 Loop A10): 8.5±26.5 MΩ
SCRSRPAESSC (listed as Homo sapiens) [LAT9993 SLoop A7, peptide variant of formula (I)]	suppressed dorsal root-evoked excitatory posts-synaptic potentials (EPSPs) in some neurons	292.9±81.3 MΩ and 292.9 MΩ	−46.2±4.3 mV and −46.2 mV	93.3	6.7	95.3	4.7	around −90 mV	membrane hyperpolarisation and inhibition of activity in 1 neurone; also recorded: membrane depolarisation in 1 neurone; also recorded: no effect on membrane potential in the remaining neurone	22.8±59.8 MΩ and 22.8 MΩ		effect on membrane potential and activity of dorsal horn neurons (listed as LAT9993 Loop A7): membrane depolarisation; dorsal root afferent-mediated EPSPs / synaptic inputs (words) (listed as LAT9993 Loop A7): suppressed dorsal root afferent-mediated excitatory synaptic inputs; also recorded: partly suppressed
